PMC4117522, “Proteasome Inhibitors Alter Levels of Intracellular Peptides in HEK293T and SH-SY5Y Cells” (PLoS ONE, 2014)
Read-outs that look alike come from different tables or passages of the source.

Key:
[1] = tested on: HEK293T cell aminopeptidase activity (Ala-AMC cleavage); assay: Aminopeptidase assay with Ala-AMC in HEK293T cell extracts; assay type: biochemical, human; conditions: HEK293T cell extract; for residual amount of activity: 50 µM; for effect on cleavage of Ala-AMC: 10 µM inhibitor
Experimental: (§1) All enzyme assays described below were performed in the linear range of the assay, as determined from time-course studies. HEK293T cells were lysed by sonication in 50 mM TrisHCl buffer, pH 7.5, containing 40 mM KCl, 5 mM MgCl2, 0.5 mM ATP, and 1 mM DTT (Buffer 1).
(§2) To measure TPP2, the fluorescent substrate was Ala-Ala-Phe-AMC. Aminopeptidase (AP) assays were performed with Leu-AMC and Ala-AMC, which detect leucine aminopeptidase (LAP), puromycin-sensitive aminopeptidase (PSAP), and other enzymes. To measure the effect of aminopeptidase/proteasome inhibitors on cleavage of Ala-Ala-Phe-AMC and Leu-AMC, 1∶50 dilution of the cell extract was pre-incubated with the inhibitor and Buffer 1 for 30 min, followed by addition of 100 µM final concentration of the respective substrate. For Ala-AMC, the same dilution of the cell extract was pre-incubated with the inhibitor and 50 mM MOPS buffer, pH 7.5, containing 40 mM KCl, 5 mM MgCl2, 0.5 mM ATP, and 1 mM DTT (Buffer 2), followed by addition of 100 µM final concentration of the substrate. After incubation at 37°C for 1 hour, enzyme activity was quantified by fluorescence measurement of the substrate (380 nm excitation, 460 nm emission).
(§3) Figure 7 Effect of aminopeptidase inhibitors on Ala-AMC and Leu-AMC cleavage. HEK 293T cell extract (panels A–D) or recombinant PSAP (panels E–F) were treated with increasing concentrations of bestatin or puromycin for 30 minutes followed by the addition of substrate and incubation for 1 hour. Enzyme activity was determined by fluorescence measurement of AMC and expressed as percentage enzyme activity relative to the control without inhibitor. (A) Bestatin inhibition of HEK293T cell extract assayed with Ala-AMC. (B) Bestatin inhibition of HEK293T cell extract assayed with Leu-AMC. (C) Puromycin inhibition of HEK293T cell extract assayed with Ala-AMC. (D) Puromycin inhibition of HEK293T cell extract assayed with Leu-AMC. (E) Puromycin inhibition of purified PSAP assayed with Ala-AMC. (F) Puromycin inhibition of purified PSAP assayed with Leu-AMC. Error bars show standard error of mean (n = 4), points without error bars had error ranges smaller than the symbol size. Statistical analysis was performed using Student’s t-test: *, p≤0.05; **, p≤0.01; ***, p≤0.001; ns, no significant difference (p>0.05) versus the control.
(§4) Figure 8 Effect of proteasome inhibitors on Ala-AMC and Leu-AMC cleavage. HEK 293T cell extract or recombinant PSAP was treated with 10 µM of each of the proteasome inhibitors for 1 hour in addition to a 30 min pre-incubation without the substrate. Enzyme activity was determined by fluorescence measurement of AMC and expressed as percentage enzyme activity relative to the control without inhibitor. Panels A and B represent the effect of proteasome inhibitors on cleavage of Ala-AMC and Leu-AMC respectively, in HEK293T cell extract. […] Error bars show standard error of mean (n = 4). Statistical analysis was performed using Student’s t-test: *, p≤0.05; **, p≤0.01; ***, p≤0.001; ns, no significant difference (p>0.05) versus the control.

[2] = tested on: HEK293T cell aminopeptidase activity (Leu-AMC cleavage); assay: Aminopeptidase assay with Leu-AMC in HEK293T cell extracts; assay type: biochemical, human; conditions: HEK293T cell extract; for effect on cleavage of Leu-AMC: 10 µM inhibitor
Experimental: as §1, §2, §3, §4

[3] = tested on: HEK293T cells; assay: Quantitative peptidomics (TMAB isotopic labels, LC-MS/MS) of inhibitor-treated HEK293T cells; assay type: cell-based, human; conditions: HEK293T cells
Experimental: (§5) HEK293T and SH-SY5Y cells were grown to 80–90% confluence in DMEM and RPMI supplemented with 10% fetal bovine serum and penicillin/streptomycin. A single plate of cells (150 mm×25 mm) was used for each group. At the start of the experiment, media were removed from the plates and cells were washed with DPBS (138 mM NaCl, 8.06 mM Na2HPO4, 2.67 mM KCl, 1.47 mM KH2PO4, 0.9 mM CaCl2 and 0.49 mM MgCl2). This was followed by addition of serum-free media containing the proteasome or aminopeptidase inhibitors, or 0.05% DMSO as a control for the inhibitors that were soluble in DMSO. Each experiment consisted of two control groups and two or three replicate groups of cells treated with one of the inhibitors. The cells were incubated at 37°C for 20 minutes, following which media containing the inhibitor was removed, cells were washed with DPBS, detached from the plate by scraping into DPBS (without trypsin), and centrifuged at 800×g for 5 min. The wash buffer was supplemented with the appropriate inhibitor at the same concentration as used for the treatment, thereby ensuring that the changes induced in peptide levels were not reversed during harvesting of cells due to possible dissociation of the reversible inhibitors. The wash time (including centrifugation) was 15 minutes, for a total treatment time of 35 minutes. After centrifugation, the cell pellet was resuspended in 1 ml of 80°C water and incubated in an 80°C water bath for 20 minutes to inactivate proteases. The mixture was again centrifuged (13,000×g, 30 min, 4°C) and was stored at −80°C overnight. For peptide extraction, the samples were thawed and centrifuged again. The lysate was subsequently cooled on ice and acidified with HCl to a final concentration of 10 mM. After 15 min incubation on ice, the lysate was centrifuged at 13,000×g for 30 min at 4°C. To the supernatant, 250 µL of dibasic sodium phosphate (0.4 M, pH 9.5) was added and the mixture was stored at −80°C until labeling.
(§6) The labeling protocol has been earlier described in detail. Each group within an experiment (control/treated) was labeled with a different isotopic tag. The TMAB-NHS labels were dissolved in DMSO to a concentration of 400 µg/µL and 15 mg of label was used per 150 mm plate of cells. […] At the beginning, the pH of the peptide extract was adjusted to 9.5 with 1 M NaOH. Labeling was performed over 8 rounds; 4.69 µL of the label was added to the extract every 20 min. The pH was measured between each round and if necessary, brought back to 9.5 for the first five rounds. For rounds 6–8, the pH was not adjusted after the addition of the TMAB-NHS reagent. After the final round of label addition, the pH was adjusted to 9.5 again and the extracts were incubated at room temperature for 90 min. Thereafter, 30 µL of 2.5 M glycine was added to quench any unreacted label. Following 40 min incubation at room temperature, the labeled extracts for a single experiment were pooled and filtered through Amicon Ultracel-10 K units. It is important to ensure that only N-terminal amines and lysine side-chain amines of peptides are TMAB-labeled and not tyrosines. To hydrolyze any labeled tyrosine, 30 µL of a 2 M solution of hydroxylamine hydrochloride (pH 3.7) was added over three rounds to the pooled and filtered sample. The pH was measured after the addition of hydroxylamine and adjusted to 9.0 with 1 M NaOH. The samples were desalted through PepClean C-18 spin columns (Thermo Scientific, Rockford, IL, USA) by following manufacturer’s instructions. Peptides were eluted using 160 µL of 0.5% TFA and 70% acetonitrile, frozen at −80°C and then lyophilized in a vacuum centrifuge and stored at −80°C until analysis by mass spectrometry.
(§7) The LC-MS/MS experiments were performed on a Synapt G2 mass spectrometer coupled to a NanoAcquity capillary liquid chromatography system (Waters Co., Milford, MA, USA).

[4] = biological target: T1, proteasome (beta 5, chymotrypsin-like activity) in HEK293T cell extract (Homo sapiens, UniProt P20618+P28074); assay: Proteasome activity in HEK293T cell extracts with beta 5-selective substrate Suc-Leu-Leu-Val-Tyr-AMC; assay type: biochemical; conditions: Suc-Leu-Leu-Val-Tyr-AMC, 30 min pre-incubation, 1 hour, read-out: IC50, inhibition of proteasome activity
T1 construct: endogenous in cells; host or cells: HEK293T
Experimental: as §1
To measure proteasome activity, a 1∶50 dilution of the cell extract was pre-incubated with the inhibitor and Buffer 1 for 30 min, followed by addition of 100 µM final concentration of the proteasome substrate succinyl-Leu-Leu-Val-Tyr-7-amino-4-methylcoumarin (Suc-Leu-Leu-Val-Tyr-AMC). After incubation at 37°C for 1 hour, proteasomal activity was quantified by fluorescence measurement of the substrate (380 nm excitation, 460 nm emission).
Figure 2 Inhibition of proteasome activity in HEK293T cells with various proteasome inhibitors. HEK293T cell extract was treated with increasing concentrations of the indicated compound for […] and incubation for 1 hour […]. Enzyme activity was determined by fluorescence measurement of AMC. The resulting activity is expressed as percent enzyme activity relative to the control reaction without inhibitor.

[5] = biological target: T2, recombinant human puromycin-sensitive aminopeptidase (PSAP, rhNPEPPS) (Homo sapiens, UniProt P55786); assay: Cleavage of Leu-AMC and Ala-AMC by purified recombinant PSAP; assay type: biochemical; conditions: for effect on cleavage of Ala-AMC by purified PSAP: 10 µM inhibitor
T2 construct: purchased R&D Systems
Experimental: To measure the effect of inhibitors on cleavage of Leu-AMC and Ala-AMC by purified PSAP, recombinant human PSAP (rhNPEPPS, R&D Systems) was diluted 1∶2000 in Buffer 2 containing 0.1 mg/ml BSA. The enzyme was pre-incubated with the inhibitor and Buffers 1 or 2, followed by addition of 100 µM final concentration of Leu-AMC (to the mix containing Buffer 1) and Ala-AMC (to the mix containing Buffer 2). After incubation at 37°C for 1 hour, PSAP activity was quantified by fluorescence measurement of the substrate (380 nm excitation, 460 nm emission).
as §3, §4

[6] = tested on: HEK293T cells; conditions: cited from earlier work
[7] = tested on: SH-SY5Y cells; assay: Quantitative peptidomics (TMAB isotopic labels, LC-MS/MS) of inhibitor-treated SH-SY5Y cells; assay type: cell-based, human; conditions: SH-SY5Y cells, 35 min; 2.5 µM MG132, 1 µM other inhibitors
Experimental: as §5, §6, §7

[8] = tested on: tripeptidyl peptidase 2 (TPP2); assay: Ala-Ala-Phe-AMC cleavage (TPP2 substrate) in HEK293T cell extracts; assay type: biochemical, human; conditions: HEK293T cell extract, micromolar concentrations
Experimental: as §1, §2
Enzyme activity was determined by fluorescence measurement of AMC and expressed as percentage enzyme activity relative to the control lacking inhibitor. […]

[9] = 35 min, 2.5 µM MG132, 1 µM other inhibitors

T2 sequence (P55786 whole entry): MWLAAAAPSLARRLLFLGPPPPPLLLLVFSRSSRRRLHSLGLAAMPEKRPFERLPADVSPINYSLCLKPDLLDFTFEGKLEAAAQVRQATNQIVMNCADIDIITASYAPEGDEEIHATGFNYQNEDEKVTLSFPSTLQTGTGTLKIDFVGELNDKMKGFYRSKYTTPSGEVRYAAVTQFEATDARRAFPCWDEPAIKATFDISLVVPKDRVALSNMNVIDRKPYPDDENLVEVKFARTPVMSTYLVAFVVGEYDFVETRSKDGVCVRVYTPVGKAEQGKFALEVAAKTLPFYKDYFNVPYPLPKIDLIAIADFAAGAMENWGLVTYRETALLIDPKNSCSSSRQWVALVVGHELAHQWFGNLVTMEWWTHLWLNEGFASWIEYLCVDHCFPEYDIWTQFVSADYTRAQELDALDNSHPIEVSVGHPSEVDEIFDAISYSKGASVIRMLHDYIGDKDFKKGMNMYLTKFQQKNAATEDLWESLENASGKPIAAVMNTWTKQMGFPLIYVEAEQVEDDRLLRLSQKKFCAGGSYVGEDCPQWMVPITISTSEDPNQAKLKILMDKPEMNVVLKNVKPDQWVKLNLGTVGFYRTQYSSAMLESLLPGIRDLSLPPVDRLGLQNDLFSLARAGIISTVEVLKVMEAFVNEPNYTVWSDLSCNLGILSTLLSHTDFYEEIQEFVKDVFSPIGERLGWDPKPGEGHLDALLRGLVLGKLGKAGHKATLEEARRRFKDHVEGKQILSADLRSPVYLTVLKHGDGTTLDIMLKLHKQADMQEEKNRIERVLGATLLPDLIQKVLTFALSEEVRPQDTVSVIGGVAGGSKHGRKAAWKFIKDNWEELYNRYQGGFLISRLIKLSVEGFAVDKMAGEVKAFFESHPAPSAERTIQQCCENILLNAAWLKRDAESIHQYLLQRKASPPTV

SMILES: CC(C)C[C@H](NC(=O)[C@@H](O)[C@H](N)Cc1ccccc1)C(=O)O [bestatin]
- inhibition of Ala-AMC cleavage [1]: > 80%
- residual amount of activity [1]: ~20%
- Enzyme activity (% control with no inhibitor) ([1]; Ala-AMC, bestatin 500 µM, bortezomib 0): 15.5±0.7 % control with no inhibitor
- inhibition of Leu-AMC cleavage [2]: > 80%

SMILES: CC(C)[C@H](O)[C@@]12NC(=O)[C@H](C)[C@@H]1OC2=O [clasto-Lactacystin β-lactone, reference compound]
- change in levels of intracellular peptides (peptidome) [3, 9]: the majority of peptides was greatly decreased
- IC50 [4]: ~10 µM

SMILES: CC(C)C[C@H](NC(=O)CNC(=O)c1cc(Cl)ccc1Cl)B(O)O [MLN2238]
- effect on cleavage of Ala-AMC [1]: inhibit
- change in levels of intracellular peptides (peptidome) [3, 9]: the majority of peptides was greatly decreased
- effect on cleavage of Leu-AMC [2]: inhibit
- effect on cleavage of Ala-AMC by purified PSAP [5]: inhibitory

SMILES: COc1ccc(C[C@H](N)C(=O)N[C@H]2[C@@H](O)[C@H](n3cnc4c(N(C)C)ncnc43)O[C@@H]2CO)cc1 [puromycin]
- inhibition of Ala-AMC cleavage [1]: > 80%
- residual amount of activity [1]: ~20%
- inhibition of Leu-AMC cleavage [2]: > 80%
- potency on purified PSAP versus HEK293T cell extract ([5]; Ala-AMC and Leu-AMC): comparable

SMILES: CC[C@H](C)[C@H](NC(=O)[C@H]([C@@H](C)CC)N(C)C(C)=O)C(=O)N[C@H](C(=O)N[C@@H](CC(C)C)C(=O)[C@@]1(C)CO1)[C@@H](C)O [epoxomicin]
- change in levels of intracellular peptides (peptidome) ([6]; HEK293T cells, 0.2 µM for 1 hour): the majority of peptides was greatly decreased
- levels of peptides arising from cleavage at beta 1 sites ([6]; cells treated for 1 hour with 2 µM): greatly elevated

SMILES: CC(C)C[C@H](NC(=O)[C@H](CC(C)C)NC(=O)[C@H](CC(C)C)NC(=O)OCc1ccccc1)B(O)O [MG262]
- effect on cleavage of Ala-AMC [1]: inhibit
- change in levels of intracellular peptides (peptidome) [3, 9]: changes that were generally similar to those caused by 500 nM bortezomib
- change in levels of intracellular peptides (peptidome) [7]: changes that were generally similar to those caused by 500 nM bortezomib
- effect on cleavage of Leu-AMC [2]: inhibit
- effect on cleavage of Ala-AMC by purified PSAP [5]: inhibitory

SMILES: CCCCNC(=O)[C@@H]1Cc2ccccc2N1C(=O)[C@@H](N)CC [butabindide, reference compound]
- change in levels of intracellular peptides (peptidome) ([3]; 100 µM bestatin methyl ester 75 min, 100 µM butabindide 35 or 75 min, bestatin): failed to substantially alter the peptide levels
- inhibition of Ala-Ala-Phe-AMC cleavage [8]: Approximately 50%
